Assay results from patent publication US12635715B2, “Isofucosterol and combinations of isofucosterol and a multiplicity of sterols as a nutrient for animals” (APIX BIOSCIENCES, priority 2022, dated 2026).

Tested on: honeybee colonies (Apidea nucs)
Test: Brood production in Apidea nucs fed isofucosterol diets (Example 3)
Assay type: in vivo, honeybees
Conditions: as the concentration of isofucosterol in the diet increased; N>3 colonies/treatment
Procedure: Honeybees: Fully functional insulated styrofoam Apidea nucs comprised 5 mini frames populated with adult workers and 1 mated laying queen bee were populated with 300-400 ml of young adult workers (˜N<1.000 bees of mixed ages).
Each treatment was tested with 3-6 colonies; each colony was fed with a 60-100 g patty (solid diet) on the top feeder fitted with a mesh floor. Diet was fed on the first day and again on day 6; the quantity consumed was measured on day 6 and day 15. If no larvae or eggs/queen are observed by day 6 then the experiment is terminated. The number of capped brood cells was counted on day 15. The number of bee seams was estimated during each inspection. Sugar syrup (34%) and water was provided in feeders inside the tent to prevent carbohydrate starvation and to stimulate foraging activity.
In Example 3, bees were fed with a diet containing 10-18% protein, 6% fat, 1% vitamins/minerals and >75% carbohydrates.
As the concentration of isofucosterol increased, the amount of brood produced in each colony increased (N>3 colonies/treatment). The pupae, and the number of new adults was counted over the entire 10-week period.

C/C=C(/CC[C@@H](C)[C@H]1CC[C@H]2[C@@H]3CC=C4C[C@@H](O)CC[C@]4(C)[C@H]3CC[C@]12C)C(C)C [isofucosterol, Isofucosterol]
amount of brood produced in each colony: increased
